According to PubChem BioAssay AID2060327 (Molecular Pharmacology Branch, DTP, NCI, 2025):

System: PC-3 multi-cell spheroids, viability
Assay: Anticancer human tumor PC-3 cell line growth inhibition [IpAb];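 further: spheroids exposed to compounds for 7 days before readout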;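 on viability, T/C: 100% = DMSO vehicle control wells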
Settings: for IC50: curve of first compound; for viability, T/C: stronger effect = lower value
How it was run: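 Multi-cell spheroids of 60% tumour cells, 25% HUVEC and 15% MSC in ultra-low-attachment U-bottom wells, treated with agents combined with ipatasertib or abemaciclib. Half-log ranges top out near clinical Cmax, or 10 microM when Cmax is unknown.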

[1] = second compound 0.01 µM, first compound 0.0316 µM
[2] = second compound 0.01 µM, first compound 0.1 µM
[3] = second compound 0.01 µM, first compound 0.316 µM
[4] = second compound 0.01 µM, first compound 1 µM
[5] = second compound 0.01 µM, first compound 3.16 µM
[6] = second compound 0.01 µM, first compound 10 µM
[7] = second compound 0.0316 µM, first compound 0.0316 µM
[8] = second compound 0.0316 µM, first compound 0.1 µM
[9] = second compound 0.0316 µM, first compound 0.316 µM
[10] = second compound 0.0316 µM, first compound 1 µM
[11] = second compound 0.0316 µM, first compound 3.16 µM
[12] = second compound 0.0316 µM, first compound 10 µM
[13] = second compound 0.1 µM, first compound 0.0316 µM
[14] = second compound 0.1 µM, first compound 0.1 µM
[15] = second compound 0.1 µM, first compound 0.316 µM
[16] = second compound 0.1 µM, first compound 1 µM
[17] = second compound 0.1 µM, first compound 3.16 µM
[18] = second compound 0.1 µM, first compound 10 µM
[19] = second compound 0.316 µM, first compound 0.0316 µM
[20] = second compound 0.316 µM, first compound 0.1 µM
[21] = second compound 0.316 µM, first compound 0.316 µM
[22] = second compound 0.316 µM, first compound 1 µM
[23] = second compound 0.316 µM, first compound 3.16 µM
[24] = second compound 0.316 µM, first compound 10 µM
[25] = second compound 1 µM, first compound 0.0316 µM
[26] = second compound 1 µM, first compound 0.1 µM
[27] = second compound 1 µM, first compound 0.316 µM
[28] = second compound 1 µM, first compound 1 µM
[29] = second compound 1 µM, first compound 3.16 µM
[30] = second compound 1 µM, first compound 10 µM

CC1(C)CCC(CN2CCN(c3ccc(C(=O)NS(=O)(=O)c4ccc(NCC5CCOCC5)c([N+](=O)[O-])c4)c(Oc4cnc5[nH]ccc5c4)c3)CC2)=C(c2ccc(Cl)cc2)C1 + CCN1CCN(Cc2ccc(Nc3ncc(F)c(-c4cc(F)c5nc(C)n(C(C)C)c5c4)n3)nc2)CC1
IC50 (second compound 0.01 µM): 5.52 µM | IC50 (second compound 0.0316 µM): 4.54 µM | IC50 (second compound 0.1 µM): 4.19 µM | IC50 (second compound 0.316 µM): 3.98 µM | IC50 (second compound 1 µM): 1.28 µM | viability, T/C [1]: 102% | viability, T/C [2]: 101% | viability, T/C [3]: 107% | viability, T/C [4]: 98.1% | viability, T/C [5]: 93.2% | viability, T/C [6]: 4% | viability, T/C [7]: 73.1% | viability, T/C [8]: 71.5% | viability, T/C [9]: 73.6% | viability, T/C [10]: 64.8% | viability, T/C [11]: 71.4% | viability, T/C [12]: 4.41% | viability, T/C [13]: 65.9% | viability, T/C [14]: 66% | viability, T/C [15]: 58.7% | viability, T/C [16]: 64.2% | viability, T/C [17]: 70.1% | viability, T/C [18]: 3.35% | viability, T/C [19]: 62.9% | viability, T/C [20]: 70.4% | viability, T/C [21]: 66.3% | viability, T/C [22]: 61.7% | viability, T/C [23]: 61.9% | viability, T/C [24]: 3.28% | viability, T/C [25]: 60.8% | viability, T/C [26]: 60.2% | viability, T/C [27]: 54.3% | viability, T/C [28]: 51.8% | viability, T/C [29]: 41.5% | viability, T/C [30]: 4.98%

CCCS(=O)(=O)Nc1ccc(F)c(C(=O)c2c[nH]c3ncc(-c4ccc(Cl)cc4)cc23)c1F + CCN1CCN(Cc2ccc(Nc3ncc(F)c(-c4cc(F)c5nc(C)n(C(C)C)c5c4)n3)nc2)CC1
IC50 (second compound 0.01 µM): 9.02 µM | IC50 (second compound 0.0316 µM): 6.6 µM | IC50 (second compound 0.1 µM): 8.63 µM | IC50 (second compound 0.316 µM): 4.29 µM | IC50 (second compound 1 µM): 3.41 µM | viability, T/C [1]: 92.5% | viability, T/C [2]: 96.8% | viability, T/C [3]: 104% | viability, T/C [4]: 99.5% | viability, T/C [5]: 76.3% | viability, T/C [6]: 47.4% | viability, T/C [7]: 65% | viability, T/C [8]: 79.1% | viability, T/C [9]: 71.7% | viability, T/C [10]: 77.8% | viability, T/C [11]: 69.3% | viability, T/C [12]: 38.8% | viability, T/C [13]: 57.3% | viability, T/C [14]: 57.4% | viability, T/C [15]: 68.6% | viability, T/C [16]: 64.1% | viability, T/C [17]: 61.9% | viability, T/C [18]: 34.9% | viability, T/C [19]: 64.7% | viability, T/C [20]: 64% | viability, T/C [21]: 68% | viability, T/C [22]: 62.4% | viability, T/C [23]: 57.2% | viability, T/C [24]: 30.6% | viability, T/C [25]: 61.5% | viability, T/C [26]: 58.5% | viability, T/C [27]: 65.3% | viability, T/C [28]: 54.6% | viability, T/C [29]: 52.6% | viability, T/C [30]: 30.6%

Cn1cnc2c(F)c(Nc3ccc(Br)cc3Cl)c(C(=O)NOCCO)cc21 + CCN1CCN(Cc2ccc(Nc3ncc(F)c(-c4cc(F)c5nc(C)n(C(C)C)c5c4)n3)nc2)CC1
IC50 (second compound 0.01 µM): > 3 µM | IC50 (second compound 0.0316 µM): 1.95 µM | IC50 (second compound 0.1 µM): 1.58 µM | IC50 (second compound 0.316 µM): 0.594 µM | IC50 (second compound 1 µM): 0.0294 µM | viability, T/C (second compound 0.01 µM, first compound 0.00949 µM): 95% | viability, T/C (second compound 0.01 µM, first compound 0.03 µM): 86.2% | viability, T/C (second compound 0.01 µM, first compound 0.0949 µM): 91.7% | viability, T/C (second compound 0.01 µM, first compound 0.3 µM): 87.7% | viability, T/C (second compound 0.01 µM, first compound 0.949 µM): 79.7% | viability, T/C (second compound 0.01 µM, first compound 3 µM): 59.8% | viability, T/C (second compound 0.0316 µM, first compound 0.00949 µM): 74.1% | viability, T/C (second compound 0.0316 µM, first compound 0.03 µM): 72.1% | viability, T/C (second compound 0.0316 µM, first compound 0.0949 µM): 62.2% | viability, T/C (second compound 0.0316 µM, first compound 0.3 µM): 71.8% | viability, T/C (second compound 0.0316 µM, first compound 0.949 µM): 57% | viability, T/C (second compound 0.0316 µM, first compound 3 µM): 45% | viability, T/C (second compound 0.1 µM, first compound 0.00949 µM): 56% | viability, T/C (second compound 0.1 µM, first compound 0.03 µM): 58.3% | viability, T/C (second compound 0.1 µM, first compound 0.0949 µM): 58.2% | viability, T/C (second compound 0.1 µM, first compound 0.3 µM): 49.2% | viability, T/C (second compound 0.1 µM, first compound 0.949 µM): 53.7% | viability, T/C (second compound 0.1 µM, first compound 3 µM): 47.8% | viability, T/C (second compound 0.316 µM, first compound 0.00949 µM): 60.2% | viability, T/C (second compound 0.316 µM, first compound 0.03 µM): 50.5% | viability, T/C (second compound 0.316 µM, first compound 0.0949 µM): 53.6% | viability, T/C (second compound 0.316 µM, first compound 0.3 µM): 54.6% | viability, T/C (second compound 0.316 µM, first compound 0.949 µM): 48.1% | viability, T/C (second compound 0.316 µM, first compound 3 µM): 41.5% | viability, T/C (second compound 1 µM, first compound 0.00949 µM): 53.2% | viability, T/C (second compound 1 µM, first compound 0.03 µM): 47.3% | viability, T/C (second compound 1 µM, first compound 0.0949 µM): 42.6% | viability, T/C (second compound 1 µM, first compound 0.3 µM): 52.1% | viability, T/C (second compound 1 µM, first compound 0.949 µM): 57.2% | viability, T/C (second compound 1 µM, first compound 3 µM): 36.5%
